The first test deals with recombinant rabies virus 1088 strain expressing Gaussia Luciferase (GLuc) (1088/GLuc). The test is classed as cell-based. The settings on record: read-out: Anti-rabies activity.
`CC(C)CNC(=O)[C@@]12C[C@@H]3CN(CCc4ccccc4)[C@@H]([C@@H]3CN1)[C@H]2Cc1ccccc1` (relative stereo) [IF-641]: the IC50 is less than 5 µM. As for `N=C(N)NCCC[C@@H]1[C@@H]2CN[C@@]3(C(=O)NCc4ccccc4)[C@@H](C2)CN(Cc2ccc(F)cc2)[C@@H]13` (relative stereo) [IB-260], the IC50 lay within 10 to 30 µM. In the case of `NC(=O)CCNC(=O)[C@]12NC[C@@H]3C[C@H]1CN(Cc1ccc(F)cc1)[C@H]2[C@@H]3Cc1cccc2ccccc12` (relative stereo) [IB-525], the IC50 fell in the range of 10 to 30 µM. For `CC(C)C[C@@H]1[C@@H]2CN[C@@]3(C(=O)NCCO)[C@@H](C2)CN(CC2CCCCC2)[C@@H]13` (relative stereo) [IB-646], the IC50 fell in the range of 10 to 30 µM.

Consider `CC(C)CCC1C2CNC3(C(=O)NCc4ccc(O)cc4)C(C2)CN(CCC(=O)O)C13` (centres unmarked) [IB-402], for which the IC50 lay in the range of 10 to 30 µM.

For `CC(C)CC[C@@H]1[C@@H]2[C@@H]3CN[C@@]1(C(=O)NCc1ccc(O)cc1)C[C@@H]3CN2Cc1ccccc1` (relative stereo) [IF-493], the IC50 is less than 5 µM.

Take `O=C(NCCc1ccccc1)[C@@]12C[C@@H]3CN(CC4CCCCC4)[C@@H]([C@@H]3CN1)[C@H]2Cc1cccc2ccccc12` (relative stereo) [IF-718]: the IC50 was less than 5 µM.

In the case of `CC(C)NC(=O)[C@@]12C[C@@H]3CN(Cc4cccc5ccccc45)[C@@H]([C@@H]3CN1)[C@H]2Cc1cccc2ccccc12` (relative stereo) [IF-596], the IC50 lay within 10 to 30 µM. The same measure, in the same setting: for `O=C(NCCO)[C@@]12C[C@@H]3CN(CC4CCCCC4)[C@@H]([C@@H]3CN1)[C@H]2Cc1cccc2ccccc12` (relative stereo) [IF-619] the value was 10 to 30 µM. Turning to `CC(C)CCN1C[C@H]2C[C@]3(C(=O)NCc4ccccc4)NC[C@H]2[C@H]1[C@H]3CC(C)C` (relative stereo) [IF-733], the IC50 is less than 5 µM. `N=C(N)NCCCNC(=O)[C@]12NC[C@@H]3C[C@H]1CN(Cc1ccccc1)[C@H]2[C@@H]3CCc1ccccc1` (relative stereo) [IB-279]: the IC50 lay within 10 to 30 µM. `O=C(NCCc1ccccc1)[C@@]12C[C@@H]3CN(Cc4ccc(F)cc4)[C@@H]([C@@H]3CN1)[C@H]2Cc1ccc(O)cc1` (relative stereo) [IF-715]: the IC50 was less than 5 µM. For the compound `Cc1ccc(CN2CC3CC4CN(CC(C)C)C3(C(=O)NCc3ccccc3)C2C4CC(C)C)cc1` (centres unmarked) [IB-881], the IC50 was less than 5 µM.

Consider `CC(C)C[C@@H]1[C@@H]2[C@@H]3CN[C@@]1(C(=O)NCc1ccc(Cl)c(Cl)c1)C[C@@H]3CN2Cc1ccccc1` (relative stereo) [IF-20], for which the IC50 lay in the range of 10 to 30 µM. For `CC(C)CC1C2CNC3(C(=O)NCc4cccc(O)c4)C(C2)CN(Cc2ccc(N(C)C)cc2)C13` (centres unmarked) [IB-891], the IC50 was in the range of 10 to 30 µM. On the same count and under the same terms, the same measure for `O=C(NCc1ccc(O)cc1)C12NCC3CC1CN(Cc1cccc4ccccc14)C2C3Cc1cccc2ccccc12` (centres unmarked) [IB-417]: 10 to 30 µM; for `CCCCCCNC(=O)[C@]12NC[C@@H]3C[C@H]1CN(CCc1ccccc1)[C@H]2[C@@H]3CCCNC(=N)N` (relative stereo) [IB-256]: 10 to 30 µM.

In the case of `CC(C)CC[C@@H]1[C@@H]2[C@@H]3CN[C@@]1(C(=O)NCc1ccc(O)cc1)C[C@@H]3CN2Cc1ccc(F)cc1` (relative stereo) [IF-479], the IC50 was less than 5 µM. Turning to `CCN1C[C@@H]2[C@H]3CN(CC(C)C)[C@@H]2[C@@H](Cc2ccccc2)[C@]1(C(=O)NCc1ccccc1)C3` (relative stereo) [IF-69], the IC50 lay in the range of 10 to 30 µM.

Turning to `CC(C)C[C@@H]1[C@@H]2[C@@H]3CN[C@@]1(C(=O)NCCc1ccccc1)C[C@@H]3CN2Cc1ccc(F)cc1` (relative stereo) [IF-714], the IC50 is less than 5 µM. Consider `O=C(NCc1cccc2ccccc12)[C@]12NC[C@@H]3C[C@H]1CN(CCO)[C@H]2[C@@H]3Cc1ccc(O)cc1` (relative stereo) [IB-527], for which the IC50 was in the range of 10 to 30 µM. For the compound `O=C(NCCO)[C@@]12C[C@@H]3CN(Cc4ccc(F)cc4)[C@@H]([C@@H]3CN1)[C@H]2Cc1cccc2ccccc12` (relative stereo) [IF-620], the IC50 was less than 5 µM. Still for that read-out and setting: for `CC(C)CNC(=O)C12NCC3CC1CN(CCc1ccccc1)C2C3CCC(=O)O` (centres unmarked) [IB-508] the value was 10 to 30 µM; for `CCCCCCNC(=O)[C@@]12C[C@@H]3CN(CCC(C)C)[C@@H]([C@@H]3CN1)[C@H]2Cc1ccc(O)cc1` (relative stereo) [IF-583], less than 5 µM; for `N=C(N)NCCCNC(=O)[C@@]12C[C@@H]3CN(Cc4cccc5ccccc45)[C@@H]([C@@H]3CN1)[C@H]2CCc1ccccc1` (relative stereo) [IF-389], less than 5 µM. `CC(C)CCN1C[C@H]2C[C@]3(C(=O)NCc4ccc(O)cc4)NC[C@H]2[C@H]1[C@H]3CCc1ccccc1` (relative stereo) [IF-464]: the IC50 was 10 to 30 µM. For `CC(C)CCN1CC2CC3(C(=O)NCCC(=O)O)NCC2C1C3CCc1ccccc1` (centres unmarked) [IF-830], the IC50 is 10 to 30 µM. For the compound `CC(C)CNC(=O)[C@]12NC[C@@H]3C[C@H]1CN(CCC(=O)O)[C@H]2[C@@H]3CCc1ccccc1` (relative stereo) [IB-430], the IC50 was less than 5 µM. On the same count and under the same terms, for `CC(C)CC[C@@H]1[C@@H]2CN[C@@]3(C(=O)NCCc4ccccc4)[C@@H](C2)CN(CC(N)=O)[C@@H]13` (relative stereo) [IB-89] the value was less than 5 µM; for `COC(=O)N1CC2CC3CN(Cc4ccc(C)cc4)C(C2CC(C)C)C31C(=O)NCc1ccccc1` (centres unmarked) [IB-885], 5 to 10 µM; for `CC(C)CCNC(=O)[C@@]12C[C@@H]3CN(CC4CCCCC4)[C@@H]([C@@H]3CN1)[C@H]2Cc1ccccc1` (relative stereo) [IF-658], less than 5 µM. For `CC(C)CN1C[C@@H]2C[C@H]3CN[C@]2(C(=O)NCCC(N)=O)[C@@H]1[C@@H]3CCc1ccccc1` (relative stereo) [IB-539], the IC50 fell in the range of 10 to 30 µM. Regarding `NC(=O)CCNC(=O)C12NCC3CC1CN(Cc1ccccc1)C2C3Cc1cccc2ccccc12` (centres unmarked) [IB-813], the IC50 was less than 5 µM. Regarding `CC(C)CC1C2CNC3(C(=O)NCc4ccc(O)cc4)C(C2)CN(Cc2ccc(N(C)C)cc2)C13` (centres unmarked) [IB-892], the IC50 was 10 to 30 µM. For the compound `O=C(O)CCNC(=O)C12CC3CN(CCO)C(C3CN1)C2Cc1cccc2ccccc12` (centres unmarked) [IF-444], the IC50 lay in the range of 10 to 30 µM. In the case of `CC(C)CC[C@@H]1[C@@H]2CN[C@@]3(C(=O)NCCC(N)=O)[C@@H](C2)CN(CCc2ccccc2)[C@@H]13` (relative stereo) [IB-342], the IC50 was 10 to 30 µM. For `CC(C)CC[C@@H]1[C@@H]2[C@@H]3CN[C@@]1(C(=O)NCCc1ccccc1)C[C@@H]3CN2Cc1ccccc1` (relative stereo) [IF-723], the IC50 lay in the range of 10 to 30 µM. Turning to `CC(C)CCNC(=O)[C@@]12C[C@@H]3CN(CCc4ccccc4)[C@@H]([C@@H]3CN1)[C@H]2CC(C)C` (relative stereo) [IF-657], the IC50 is less than 5 µM.

For the compound `CC(C)CC[C@@H]1[C@@H]2CN[C@@]3(C(=O)NCCc4ccccc4)[C@@H](C2)CN(Cc2ccc(O)cc2)[C@@H]13` (relative stereo) [IB-544], the IC50 was in the range of 10 to 30 µM. The same measure, in the same setting: the same measure for `NC(=O)CC1C2C3CNC1(C(=O)NCCO)CC3CN2Cc1cccc2ccccc12` (centres unmarked) [IF-230]: 10 to 30 µM. Same read-out and setting: for `CC(C)CC1C2CNC3(C(=O)NCCc4ccccc4)C(C2)CN(CC(C)C)C13` (centres unmarked) [IB-495] the value was less than 5 µM; for `CC(C)CNC(=O)[C@]12NC[C@@H]3C[C@H]1CN(CCO)[C@H]2[C@@H]3Cc1cccc2ccccc12` (relative stereo) [IB-621], less than 5 µM; for `CC(C)CNC(=O)[C@]12NC[C@@H]3C[C@H]1CN(CCc1ccccc1)[C@H]2[C@@H]3Cc1ccccc1` (relative stereo) [IB-759], less than 5 µM. Consider `CC(C)CC[C@@H]1[C@@H]2[C@@H]3CN[C@@]1(C(=O)NCc1ccccc1)C[C@@H]3CN2Cc1ccc(F)cc1` (relative stereo) [IF-743], for which the IC50 was in the range of 10 to 30 µM. In the case of `CC(C)CC[C@@H]1[C@@H]2[C@@H]3CN[C@@]1(C(=O)NCC(C)C)C[C@@H]3CN2CC(C)C` (relative stereo) [IF-412], the IC50 was less than 5 µM.

For the compound `CCCCCCNC(=O)[C@@]12C[C@@H]3CN(Cc4ccccc4)[C@@H]([C@@H]3CN1)[C@H]2Cc1ccc(O)cc1` (relative stereo) [IF-692], the IC50 was less than 5 µM. With `O=C(NCCO)[C@]12NC[C@@H]3C[C@H]1CN(CC1CCCCC1)[C@H]2[C@@H]3CCc1ccccc1` (relative stereo) [IB-663], the IC50 was less than 5 µM.

Turning to `CC(C)CN1CC2CC3(C(=O)NCCC(=O)O)NCC2C1C3Cc1cccc2ccccc12` (centres unmarked) [IF-428], the IC50 is 10 to 30 µM. For the compound `NC(=O)CCNC(=O)[C@]12NC[C@@H]3C[C@H]1CN(CC1CCCCC1)[C@H]2[C@@H]3Cc1cccc2ccccc12` (relative stereo) [IB-522], the IC50 was 10 to 30 µM. As to `CC(C)CC1C2CNC3(C(=O)NCc4ccc5ccccc5c4)C(C2)CN(Cc2ccccc2)C13` (centres unmarked) [IB-879], the IC50 was less than 5 µM. As to `CC(C)C[C@@H]1[C@@H]2CN[C@@]3(C(=O)NCCc4ccccc4)[C@@H](C2)CN(Cc2ccc(O)cc2)[C@@H]13` (relative stereo) [IB-540], the IC50 was 10 to 30 µM. Still for that read-out and setting: the same measure for `O=C(NCc1ccc(F)cc1)C12NCC3CC1CN(CCO)C2C3Cc1ccccc1` (centres unmarked) [IB-479]: 10 to 30 µM. Take `O=C(NCc1ccc(F)cc1)[C@@]12C[C@@H]3CN(CCO)[C@@H]([C@@H]3CN1)[C@H]2Cc1ccccc1` (relative stereo) [IF-508]: the IC50 lay within 10 to 30 µM. On to `NC(=O)C[C@@H]1[C@@H]2[C@@H]3CN[C@@]1(C(=O)NCc1ccccc1)C[C@@H]3CN2CC1CCCCC1` (relative stereo) [IF-246], for which the IC50 fell in the range of 10 to 30 µM. Consider `O=C(NCCO)[C@]12NC[C@@H]3C[C@H]1CN(Cc1cccc4ccccc14)[C@H]2[C@@H]3Cc1ccc(O)cc1` (relative stereo) [IB-459], for which the IC50 was 10 to 30 µM. In the case of `CC(C)CN1C[C@@H]2C[C@H]3CN[C@]2(C(=O)NCc2ccccc2)[C@@H]1[C@@H]3Cc1ccc(O)cc1` (relative stereo) [IB-783], the IC50 was in the range of 10 to 30 µM. Consider `NC(=O)CN1C[C@@H]2C[C@H]3CN[C@]2(C(=O)NCc2ccc(F)cc2)[C@@H]1[C@@H]3Cc1ccccc1` (relative stereo) [IB-92], for which the IC50 lay within 10 to 30 µM.

Still in this test, the particulars now being: read-out: IC50.
With `CC(C)C[C@@H]1[C@@H]2[C@@H]3CN[C@@]1(C(=O)NCc1ccc(Cl)c(Cl)c1)C[C@@H]3CN2Cc1ccccc1` (relative stereo) [IF-20], the IC50 was 11.6 µM. Turning to `CCN1C[C@@H]2[C@H]3CN(CC(C)C)[C@@H]2[C@@H](Cc2ccccc2)[C@]1(C(=O)NCc1ccccc1)C3` (relative stereo) [IF-69], the IC50 was 16.5 µM.
